Experimental data as given in US20090062253A1, “HETEROCYCLODIAZEPINE CANNABINOID RECEPTOR MODULATORS FOR TREATMENT OF DISEASE” (KALYPSYS, INC., priority 2007, published 2009).

Columns and labels:
Human CB2 = target: T1, Human CB2 (Homo sapiens, UniProt P34972); experiment: Human CB2 Radioligand Binding Assay; details: membranes from stably transfected CHO CB2 cells; competition with [3H] CP-55,940; read-out: CB2 Ligand Binding Asssay
T1 construct: expressed in transfected cells; membrane preparation
T1 sequence (P34972 whole entry): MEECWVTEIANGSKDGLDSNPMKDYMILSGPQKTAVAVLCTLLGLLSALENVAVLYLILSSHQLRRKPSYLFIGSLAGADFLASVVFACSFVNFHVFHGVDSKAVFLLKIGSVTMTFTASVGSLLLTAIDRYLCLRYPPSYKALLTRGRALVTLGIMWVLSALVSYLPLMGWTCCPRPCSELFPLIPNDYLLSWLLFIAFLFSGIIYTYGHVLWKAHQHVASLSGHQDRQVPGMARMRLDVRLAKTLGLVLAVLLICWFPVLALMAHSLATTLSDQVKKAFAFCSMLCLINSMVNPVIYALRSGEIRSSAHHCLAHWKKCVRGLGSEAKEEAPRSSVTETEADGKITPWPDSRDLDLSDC
Method in brief: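 Filtration competition against [3H]CP-55,940 at its Kd on membranes from CHO cells stably expressing human CB2; compounds at 10 uM single point or dose-response, 1% DMSO. Buffer 50 mM Tris-HCl pH 7.4, EGTA, MgCl2, 5.0 mg/ml BSA; 90 min at 30° C, scintillation read; 100 nM CP-55,940 = 100%.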

[1] = target: T2, human cannabinoid receptor type 1 (Homo sapiens, UniProt P21554); experiment: Human CB1 Radioligand Binding Assay (basis of selectivity CB2 vs. CB1)
T2 construct: purchased Perkin Elmer RBHCB1M; host or cells: HEK 293 EBNA cells
T2 sequence (P21554 whole entry): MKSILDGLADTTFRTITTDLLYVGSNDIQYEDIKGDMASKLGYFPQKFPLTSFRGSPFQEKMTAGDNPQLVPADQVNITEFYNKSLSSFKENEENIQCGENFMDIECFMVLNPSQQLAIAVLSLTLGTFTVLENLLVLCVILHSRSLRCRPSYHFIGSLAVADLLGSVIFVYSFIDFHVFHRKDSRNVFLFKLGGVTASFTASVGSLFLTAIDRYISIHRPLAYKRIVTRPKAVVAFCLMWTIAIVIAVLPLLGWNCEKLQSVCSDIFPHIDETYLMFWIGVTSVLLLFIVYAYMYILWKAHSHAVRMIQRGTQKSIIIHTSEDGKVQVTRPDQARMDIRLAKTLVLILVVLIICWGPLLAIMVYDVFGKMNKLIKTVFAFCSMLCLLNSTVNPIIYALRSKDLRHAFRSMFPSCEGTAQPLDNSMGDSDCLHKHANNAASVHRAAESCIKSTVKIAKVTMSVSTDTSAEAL
Method in brief: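 Filtration competition binding against [3H] CP-55,940 at its Kd, using membranes from HEK 293 EBNA cells expressing human CB1; 90 minutes at 30° C in 50 mM Tris-HCl pH 7.4, 2.5 mM EDTA, 5 mM MgCl2, 5.0 mg/ml BSA, 1% DMSO. Single point 10 uM or dose-response; 100 nM CP-55,940 defined 100% efficacy.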

Molecule	IC50 (radioligand displacement) (Human CB2) [µM]	Selectivity, CB2 vs. CB1 [1]
CC(C)(C)c1ccc(C2=C(C(=O)Nc3ccc(C(F)(F)F)cc3)CCn3cccc32)cc1 [Example 132, 8-(4-tert-Butylphenyl)-N-(4-(trifluoromethyl)phenyl)-5,6-dihydroindolizine-7-carboxamide]	< 1	− (− indicates < 10-fold)
CC(C)(C)c1ccc(C2c3cccnc3CCCN2C(=O)Nc2ccc(F)cc2F)cc1 (stereo not shown) [Example 134, 5-(4-tert-Butylphenyl)-N-(2,4-difluorophenyl)-8,9-dihydro-5H-pyrido[3,2-c]azepine-6(7H)-carboxamide]	< 1	+ (+ indicates > 10-fold)
CC(C)(C)c1ccc(C2c3cccnc3CCCN2C(=O)Nc2ccc(F)c(F)c2)cc1 (stereo not shown) [Example 135, 5-(4-tert-Butylphenyl)-N-(3,4-difluorophenyl)-8,9-dihydro-5H-pyrido[3,2-c]azepine-6(7H)-carboxamide]	< 1	+ (+ indicates > 10-fold)
CC(C)(C)c1ccc(C2c3cccnc3CCCN2C(=O)Nc2ccc(Cl)cc2Cl)cc1 (stereo not shown) [Example 136, 5-(4-tert-Butylphenyl)-N-(2,4-dichlorophenyl)-8,9-dihydro-5H-pyrido[3,2-c]azepine-6(7H)-carboxamide]	> 1	+ (+ indicates > 10-fold)
CC(C)(C)c1ccc(C2c3cccnc3OCCN2C(=O)Nc2ccc(F)cc2F)cc1 (stereo not shown) [Example 138, 5-(4-tert-Butylphenyl)-N-(2,4-difluorophenyl)-2,3-dihydropyrido[3,2-f][1,4]oxazepine-4(5H)-carboxamide]	> 1	− (− indicates < 10-fold)
CC(C)(C)c1ccc(C2c3cccnc3OCCN2C(=O)Nc2ccc(F)c(F)c2)cc1 (stereo not shown) [Example 139, 5-(4-tert-Butylphenyl)-N-(3,4-difluorophenyl)-2,3-dihydropyrido[3,2-f][1,4]oxazepine-4(5H)-carboxamide]	> 1	+ (+ indicates > 10-fold)
CC(C)(C)c1ccc(C2c3cccnc3OCCN2C(=O)Nc2ccc(Cl)cc2Cl)cc1 (stereo not shown) [Example 140, 5-(4-tert-Butylphenyl)-N-(2,4-dichlorophenyl)-2,3-dihydropyrido[3,2-f][1,4]oxazepine-4(5H)-carboxamide]	> 1	− (− indicates < 10-fold)
(8,9-cis)-9-Phenyl-N-(4-(trifluoromethyl)phenyl)-6,7,8,9-tetrahydro-5H-pyrrolo[1,2-a]azepine-8-carboxamide [Example 112]	> 1	− (− indicates < 10-fold)
